# “Also recorded” adds a separate entry of the source.
# Key:
# liver = assay: Liver toxicity markers and liver triglyceride in treated mice; type: in vivo, mouse
# Source text: (§1) C3 is not liver toxic and acts through a different mechanism than TZDs. […] Deleterious side effect or TZDs are due to their agonism of PPARg.
# [1] = system: endogenous GLUT4 in primary adipocytes; assay: Insulin-stimulated translocation of endogenous GLUT4 in HBG4 primary adipocytes; type: cell-based, mouse
# Experimental: Generating a mouse model for measurement of GLUT4 translocation ex vivo and in-vivo. To enable the validation of identified compounds in a relevant system, a mouse model in which the coding sequence for HiBiT was inserted in the first extracellular loop of endogenous GLUT4 using CRISPR/Cas9 (HBG4 mouse) was prepared. […] GLUT4 was detected in skeletal muscle, white adipose tissue, and brown adipose tissue but not in the brain, spleen, liver, or pancreas, thus, confirming the normal distribution of HiBit-labeled GLUT4 and the ability of this assay to detect endogenous GLUT4 in mouse tissues.
# C3 potentiates insulin action in primary adipocytes and in live mice. Using HBG4 mice, insulin stimulated GLUT4 translocation of endogenous GLUT4 was measured in primary skeletal muscle fibers and primary adipocytes. Enhancement of insulin-stimulated translocation of endogenous GLUT4 was also shown in primary adipocytes in the presence of C3. In parallel dishes, increased insulin-stimulated glucose uptake in HBG4 primary adipocyte treated with C3 was found. […] To determine if the HBG4 mouse can be used to measure GLUT4 translocation in vivo, HBG4 mice were pretreated with daily IP injections of vehicle or 50 mg/Kg C3 for 3 days. […] Mice were then anesthetized and placed into an IVIS system to measure luminescence. […] Baseline signal was detected in vehicle and C3 treated HBG4 mice. […]
# [2] = system: diet-induced obese (DIO) mice; assay: Glucose tolerance, fasting glucose and insulin in diet-induced obese (DIO) insulin-resistant mice; type: in vivo, mouse
# Experimental: To test whether C3 improves glucose handling, WT mice were made insulin-resistant by feeding them a high fat diet (HFD) for a period of 10 weeks. After 10 weeks, mice were injected with vehicle. C3 (20 mg/kg), or the TZD rosiglitazone (20 mg/kg) for 2 weeks while remaining on the HFD. […] To further test the in vivo efficacy of C3, a glucose tolerance test (GTT) was perfromed.
# (§2) To test whether C3 improves glucose handling, lean mice were injected with vehicle or C3 30 minutes before performing a glucose tolerance test. […] To further determine if C3 can reverse glucose intolerance, WT mice were made insulin-resistant by feeding them a high fat diet (HFD) for a period of 10 weeks. Diet induced obese (DIO) mice were then injected with vehicle or C3 for 2 weeks while remaining on HFD.
# [3] = system: GLUT4 translocation in C2C12 myoblast cell line stably expressing HiBiT-GLUT4 (HBG4); assay: HiBiT (NanoBit) luminescence GLUT4 translocation assay in HBG4 C2C12 cells; type: cell-based, mouse
# Source text: An assay was used to identify potentiators of insulin-stimulated GLUT4 translocation. In one embodiment, the assay employs Nanobit technology. This technology is based on the recombination of two complementary fragments, HiBiT and LgBiT, of the Nanoluc luciferase. HiBit was fused to an extracellular region of GLUT4 to allow for the rapid quantitation of its the surface density in live cells by adding the reconibinantly produced complementary fragment LgBiT and the luciferase substrate. Since LgBiT is not membrane permeant, only proteins at the plasma membrane are quantified. To measure GLUT4 translocation, a stable C2C12 myoblast cell line was prepared by expressing a HiBiT-tagged mouse GLUT4. […] The Chembridge Diverset library of 49,600 compounds was screened and 1264 hits were identified. A subset of those hits were selected and retested in the presence and absence of insulin.
# Development of a HTS assay for real-time measurement of GLUT4 translocation. To measure GLUT4 translocation in a homogenous and HIS amenable manner, NanoBit technology was used. This technology relies on the rapid recombination of 2 fragments of the Nanoluc luciferase (HiBit and LgBiT) with high affinity for each other. Fragments have no enzymatic activity on their own but generate a bright luminescent signal when recombined. A C2C12 myoblast cell line was prepared that stably expressed HiBiT-GLUT4 (HBG4), in which the small 11 amino acid HiBiT fragment was inserted into the first extracellular loop of GLUT4. A C-terminal mCherry was also added for microscopic detection. The C2C12 line was chosen as an in vitro model because it is derived from skeletal myoblasts and translocate GLUT4 in response to insulin. Detection of plasma membrane density of HBG4 is achieved by adding recombinant LgBit and substrate to live cells. The assay can be conducted as an endpoint where cells are incubated with insulin before measuring luminescence or as a kinetic assay by adding LgBiT and substrate at the beginning of the experiment and monitor real-time insulin-stimulated GLUT4 translocation.
# An assay to measure GLUT4 translocation in a homogenous and HIS amenable manner using NanoBit technology was developed. This technology relies on the rapid recombination of 2 fragments of the Nanoiuc luciferase (HiBit and LgBiT) with high affinity for each other. Fragments have no enzymatic activity on their own but generate a bright luminescent signal when recombined. A C2C12 myoblast cell line stably expressing HiBiT-GLUT4 (HBG4), in which the small 11 amino acid HiBiT fragment was inserted into the first extracellular loop of GLUT4 was prepared. A C-terminal mCherry was also added for microscopic detection (FIGS. 1A and B). The C2C12 line was chosen as an in-vitro model because it is derived from skeletal myoblasts and translocates GLUT4 in response to insulin. Detection of plasma membrane density of HBG4 is achieved by adding recombinant LgBit and substrate to live cells (FIG. 1C). The assay can be conducted as a kinetic assay by adding LgBiT and substrate at the beginning of the experiment and monitoring real-time insulin-stimulated GLUT4 translocation (FIGS. 1D and E).
# PPARg = target: T1, PPARg (Homo sapiens, UniProt P37231); assay: Luminescent PPARg reporter assay in vitro; type: cell-based
# T1 sequence (P37231 1-505): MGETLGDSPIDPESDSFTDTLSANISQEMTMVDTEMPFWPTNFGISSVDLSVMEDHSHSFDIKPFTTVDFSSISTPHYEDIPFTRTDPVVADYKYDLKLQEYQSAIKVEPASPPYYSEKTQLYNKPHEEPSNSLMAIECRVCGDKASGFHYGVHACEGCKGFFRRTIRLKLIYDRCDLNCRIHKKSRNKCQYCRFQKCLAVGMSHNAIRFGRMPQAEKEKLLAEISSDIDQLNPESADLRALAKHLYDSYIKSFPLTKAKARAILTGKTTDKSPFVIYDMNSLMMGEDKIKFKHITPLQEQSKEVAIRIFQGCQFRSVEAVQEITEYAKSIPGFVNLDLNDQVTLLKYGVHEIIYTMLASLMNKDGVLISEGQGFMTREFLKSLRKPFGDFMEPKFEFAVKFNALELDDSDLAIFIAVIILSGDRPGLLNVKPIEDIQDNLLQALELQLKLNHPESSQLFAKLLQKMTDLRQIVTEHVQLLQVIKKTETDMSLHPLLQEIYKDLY
# Source text: as §1
# lean mice = assay: Glucose tolerance test in lean mice; type: in vivo, mouse; settings: single injection before GTT
# Experimental: as §2, with “C3 improves glucose tolerance in lean and obese insulin resistant mice. To test” for “To test”, “on HFD. […] Together those results establish in vivo efficacy of C3 for the treatment of insulin resistance.” for “on HFD.”
# primary adipocytes = assay: Insulin-stimulated glucose uptake in primary adipocytes; type: cell-based, mouse
# Experimental: C3 potentiates insulin action in primary adipocytes and in live mice. Using HBG4 mice, insulin stimulated GLUT4 translocation of endogenous GLUT4 was measured in primary skeletal muscle fibers and primary adipocytes. Enhancement of insulin-stimulated translocation of endogenous GLUT4 was also shown in primary adipocytes in the presence of C3. In parallel dishes, increased insulin-stimulated glucose uptake in HBG4 primary adipocyte treated with C3 was found. […] To determine if the HBG4 mouse can be used to measure GLUT4 translocation in vivo, HBG4 mice were pretreated with daily IP injections of vehicle or 50 mg/Kg C3 for 3 days. On the day of the experiment, mice were injected with vehicle or insulin IP followed by a subcutaneous injection of LgBiT and substrate around the leg muscles. Mice were then anesthetized and placed into an IVIS system to measure luminescence. […] Baseline signal was detected in vehicle and C3 treated HBG4 mice. […] It also further confirms the insulin-sensitizing activity of C3 in vivo.
# [4] = system: GLUT4 translocation in HBG4 mice; assay: In vivo GLUT4 translocation in HBG4 mice (IVIS luminescence); parameters: species or system mouse; settings: HBG4 mice, daily IP 50 mg/Kg for 3 days, insulin IP
# Experimental: C3 potentiates insulin action in primary adipocytes and in live mice. Using HBG4 mice, insulin stimulated GLUT4 translocation of endogenous GLUT4 was measured in primary skeletal muscle fibers and primary adipocytes. Enhancement of insulin-stimulated translocation of endogenous GLUT4 was also shown in primary adipocytes in the presence of C3. In parallel dishes, increased insulin-stimulated glucose uptake in HBG4 primary adipocyte treated with C3 was found. […] To determine if the HBG4 mouse can be used to measure GLUT4 translocation in vivo, HBG4 mice were pretreated with daily IP injections of vehicle or 50 mg/Kg C3 for 3 days. On the day of the experiment, mice were injected with vehicle or insulin IP followed by a subcutaneous injection of LgBiT and substrate around the leg muscles. Mice were then anesthetized and placed into an IVIS system to measure luminescence. […] Baseline signal was detected in vehicle and C3 treated HBG4 mice. […]
# DIO HBG4 mice were treated with vehicle or C59 for 2 weeks and injected i.v. with an adenovirus coding for a secreted form of LgBiT (allowing LgBiT production and secretion predominantly by the liver into the circulation) 2 days prior to the experiment. Animal were then injected with saline or insulin 10 minutes before i.v. injection of substrate and luminescence imaging using an IVIS system.
# [5] = DIO mice, 2 weeks treatment (20 mg/kg)
structure (smiles),measurement,setting,value
O=C(Nc1ccc(Cl)c(Cl)c1)C12CC3CC(CC(C3)C1)C2 [Compound C3],liver triglyceride content,"liver; DIO mice, compared to saline treated mice",significant decrease
same,plasma level of liver enzyme ALT,liver; treated mice,Neither liver toxicity markers were increased
same,plasma level of liver enzyme AST,liver; treated mice,Neither liver toxicity markers were increased
same,insulin-stimulated translocation of endogenous GLUT4,[1],Enhancement
same,glucose handling in glucose tolerance test,"[2]; DIO mice (HFD 10 weeks), injected for 2 weeks (20 mg/kg)",drastically improved; also recorded: rapidly cleared glucose; also recorded: very significant improvement
same,insulin response to the glucose challenge,"[2]; DIO mice, 20 mg/kg for 2 weeks, GTT",normal insulin response
same,fasting blood glucose,[2]; [5],significantly decreased
same,fasting plasma insulin,[2]; [5],significantly decreased
same,GLUT4 translocation on its own,"[3]; in the absence of insulin, HBG4 C2C12 cells",no effect
same,insulin-stimulated GLUT4 translocation,"[3]; in the presence of insulin, WT HBG4 C2C12 cells",significantly potentiated; also recorded: enhanced
same,PPARg agonist activity,PPARg,did not activate; also recorded: no agonist activity; also recorded: neither C3 nor C59 have PPARγ agonist activity
same,glucose clearance in glucose tolerance test,lean mice,drastically improved; also recorded: significantly accelerated
same,insulin-stimulated glucose uptake,primary adipocytes,significantly improved; also recorded: increased
same,insulin-induced luminescence (GLUT4 translocation) in vivo,[4],further increased

# From patent publication US20230295088A1, “INSULIN SENSITIZERS FOR THE TREATMENT OF DIABETES MELLITUS” (University of Iowa Research Foundation, priority 2020, published 2023)
